Results published in patent US11440922B2, “Heterocyclylmethylidene derivatives and their use as modulators of mGluR5 receptors” (Recordati Industria Chimica e Farmaceutica S.p.A., priority 2017, dated 2022).

Tests used:
[1] = target: human mGluR5 receptor (Homo sapiens (Human), UniProt P41594); assay: Radioligand binding assay at cloned human mGluR5 receptor subtype ([3H]MPEP); conditions: 4 nM [3H]MPEP, CHO T-REx h-mGluR5 cells, 60 min at 25° C.; read-out: mGlu5 Ki
From the text: (§1) Cell lines stably transfected were generated using inducible expression vectors encoding human mGlu5 receptor using the Tetracycline-Regulated Expression system (T-REx™ system, Invitrogen, Life Technologies). Human mGluR5 open reading frame (ORF), comprehensive of the stop codon, were cloned into the pcDNA4/TO/myc-His™ A vector, carrying the TetO2. The insertion site was HindIII-PstI for mGluR5 receptors. The obtained constructs were then transfected into the T-REx CHO™ cell line using the FuGENE protocol (Roche); the CHO T-REx™ cell line stably expresses the Tet repressor (from the pcDNA6/TR plasmid) under the selection of blasticidin, 10 μg/ml. Stable clones were obtained selecting with zeocin 1 mg/ml and maintaining in ULTRA CHO medium (LONZA) supplemented with dialyzed FBS, zeocin, blasticidine, at 37° C., in an atmosphere of 5% CO2. The expression of h-mGluR5 receptors was de-repressed with 1 μg/ml tetracycline for 18 h before binding experimentation, while the expression of h-mGluR5 receptors was derepressed respectively with 3 ng/ml and 10 ng/ml tetracycline for 18 h before calcium fluorescence experimentation.
Radioligand Binding Assay at Cloned Human mGluR5 Receptor Subtype
Affinity at transmembrane glutamate metabotropic cloned human mGluR5 receptor was evaluated according to the methods of Anderson (Anderson et al., J Pharmacol. Exp. Ther., (2002), Vol. 303(3), pp. 1044-51), with some modifications. Human cloned mGluR5 was obtained by re-suspending CHO T-REx h-mGluR5 cells (50 μg/well) in 20 mM HEPES, 2 mM MgCl2, 2 mM CaCl2, pH 7.4, that then were incubated in a final volume of 1 ml for 60 min at 25° C. with 4 nM [^3H]MPEP in the absence or presence of competing drugs. Non-specific binding was determined in the presence of 10 μM MPEP. The incubation was stopped by addition of cold Tris buffer pH 7.4 and rapid filtration through 0.2% polyethyleneimine pretreated Filtermat 1204-401 (Perkin Elmer) filters. The filters were then washed with cold buffer and the radioactivity retained on the filters was counted by liquid scintillation spectrometry (Betaplate 1204 BS-Wallac).
(§2) The inhibition curves of the tested compounds at cloned mGluR5 subtypes were determined by nonlinear regression analysis using software Prism 4.0 (Graphpad, San Diego, Calif.). The IC50 values and pseudo-Hill slope coefficients were estimated by the program. The values for the inhibition constant, Ki, were calculated according to the equation Ki=IC50/(1+[L]/Kd), where [L] is the concentration of radioligand and Kd is the equilibrium dissociation constant of the radioligand-receptor complex (Cheng et al., Biochem. Pharmacol. (1973), Vol. 22, pp. 3099-3108).

[2] = target: T1, human mGlu5 receptor (Homo sapiens (Human), UniProt P41594); assay: Calcium fluorescence measurements, antagonist potency (negative allosteric modulator activity); format: cell-based; conditions: EC80 of quisqualate as agonist, compounds applied 10 minutes before agonist
T1 sequence (P41594 21-1212): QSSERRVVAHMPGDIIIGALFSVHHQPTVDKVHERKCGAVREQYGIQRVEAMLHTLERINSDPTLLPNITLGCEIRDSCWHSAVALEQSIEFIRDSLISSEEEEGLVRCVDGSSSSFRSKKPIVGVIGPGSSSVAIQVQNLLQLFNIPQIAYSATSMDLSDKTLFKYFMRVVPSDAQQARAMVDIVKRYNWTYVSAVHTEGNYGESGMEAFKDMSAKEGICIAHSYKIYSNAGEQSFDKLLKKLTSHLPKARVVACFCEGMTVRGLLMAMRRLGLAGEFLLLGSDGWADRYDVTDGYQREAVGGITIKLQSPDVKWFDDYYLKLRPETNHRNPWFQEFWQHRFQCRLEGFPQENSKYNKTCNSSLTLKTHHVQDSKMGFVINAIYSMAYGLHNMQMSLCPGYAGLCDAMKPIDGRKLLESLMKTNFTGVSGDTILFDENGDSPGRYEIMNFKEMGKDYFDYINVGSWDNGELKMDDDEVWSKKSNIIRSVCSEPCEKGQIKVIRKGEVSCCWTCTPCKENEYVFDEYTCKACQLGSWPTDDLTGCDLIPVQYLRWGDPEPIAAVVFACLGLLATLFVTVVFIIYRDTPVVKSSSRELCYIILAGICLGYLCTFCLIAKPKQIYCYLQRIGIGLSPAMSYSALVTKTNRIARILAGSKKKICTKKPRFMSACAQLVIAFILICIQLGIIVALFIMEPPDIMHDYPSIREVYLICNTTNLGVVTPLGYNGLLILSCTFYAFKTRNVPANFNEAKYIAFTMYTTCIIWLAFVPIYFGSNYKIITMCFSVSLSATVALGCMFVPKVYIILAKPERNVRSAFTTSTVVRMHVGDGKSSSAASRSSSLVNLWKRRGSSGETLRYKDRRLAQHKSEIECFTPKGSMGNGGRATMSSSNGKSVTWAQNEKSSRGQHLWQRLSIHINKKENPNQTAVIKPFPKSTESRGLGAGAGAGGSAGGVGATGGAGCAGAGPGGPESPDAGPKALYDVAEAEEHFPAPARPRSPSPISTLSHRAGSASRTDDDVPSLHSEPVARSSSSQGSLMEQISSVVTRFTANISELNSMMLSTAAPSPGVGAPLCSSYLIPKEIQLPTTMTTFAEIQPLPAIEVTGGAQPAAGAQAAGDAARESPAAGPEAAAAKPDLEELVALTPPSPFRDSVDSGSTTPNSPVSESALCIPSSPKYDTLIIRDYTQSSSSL
From the text: as §1
(§3) Cells were seeded into black-walled, clear-bottom, 96-well plates at a density of 80000 cell/well, in RPMI (without Phenol Red, without L-glutamine; Gibco LifeTechnologies, CA) supplemented with 10% dialyzed FBS. Following 18-h incubation with tetracycline, the cells were loaded with […] Ca^2+-sensitive fluorescent dye Fluo-4/AM (Molecular Probes) in Hanks' balanced saline solution (HBSS, Gibco LifeTechnologies, CA) with […] Hepes (Sigma) and 2.5 mM probenecid (Sigma), for 1 h at 37° C. The cells were washed three times with HBSS to remove extracellular dye. Fluorescence signals were measured by using the fluorescence microplate reader Flexstation III (Molecular Devices) at sampling intervals of 1.5 s for 60 s.
(§4) The antagonist potency was determined using the EC80 of the quisqualate used as agonist and the potentiation of mGlu5 activation was determined using the EC20 of the agonist (quisqualate or glutamate). The compounds were applied 10 minutes before the application of the agonist.
(§5) The negative allosteric modulator activity (expressed as IC50) and the positive allosteric modulator activity (expressed as EC50) of the compounds of the invention for the mGlu5 receptors is between 0.1 and 1000 nM.
as §2

[3] = target: T1, human mGlu5 receptor; assay: Calcium fluorescence measurements, potentiation of mGlu5 activation (positive allosteric modulator activity); format: cell-based; conditions: EC20 of the agonist (quisqualate or glutamate), compounds applied 10 minutes before agonist
From the text: as §1, §3, §4, §5

[4] = target: T1, human mGlu5 receptor; assay: Fold shift of agonist curve determination; format: cell-based; conditions: ratio of EC50 agonist (quisqualate or glutamate) curves in presence and in absence of test compound; compound at 1 μM
From the text: as §1, §3
The PAM potency was evaluated by performing an agonist concentration response curve in the presence of the compounds. The compounds at fixed concentration (0.01 or 0.1 or 1 μM) were applied 10 minutes before the incubation of the agonist (quisqualate or glutamate) dose-response curve. The fold shift was determined as ratio of EC50 agonist curves in presence and in absence of test compound. For instance, and in particular compound 34 has a fold shift of 2.7.

Sequence of human mGluR5 receptor (P41594 21-1212): as above

Question: CCOC(=O)N1CC/C(=C\C#Cc2cccc(C)n2)C(C)(C)C1 [Example 3, ethyl (4E)-3,3-dimethyl-4-[3-(6-methylpyridin-2-yl)prop-2-yn-1-ylidene]piperidine-1-carboxylate] was tested. Which Ki [1] did it give?
Answer: The Ki was 1.47 nM.

Question: How did the Ki [1] turn out when CCOC(=O)N1CC/C(=C\C#Cc2cc(Cl)ccn2)C(C)(C)C1 [Example 18, ethyl (4E)-4-[3-(4-chloropyridin-2-yl)prop-2-yn-1-ylidene]-3,3-dimethylpiperidine-1-carboxylate] was run?
Answer: The Ki was 1.01 nM.

Question: With CCOC(=O)N1CC/C(=C\C#Cc2cc(F)ccc2F)C(C)(C)C1 [Example 19, ethyl (4E)-4-[3-(2,5-difluorophenyl)prop-2-yn-1-ylidene]-3,3-dimethylpiperidine-1-carboxylate] as the compound, how does the Ki [1] read?
Answer: Its Ki is 0.89 nM.

Question: Which results are given for CCOC(=O)N1CC/C(=C\C#Cc2cccc(C(F)(F)F)c2)C(C)(C)C1 [Example 22, ethyl (4E)-3,3-dimethyl-4-{3-[3-(trifluoromethyl)phenyl]prop-2-yn-1-ylidene}piperidine-1-carboxylate]?
Answer: Ki [1]: 1.9 nM; IC50 [2]: 66.3 nM

Question: For Cc1cccc(C(=O)N2CC/C(=C\C#Cc3cccc(Cl)c3)C(C)(C)C2)c1 [Example 43, {(4E)-4-[3-(3-chlorophenyl)prop-2-yn-1-ylidene]-3,3-dimethylpiperidin-1-yl}(3-methylphenyl)methanone], which Ki [1] is on record?
Answer: Its Ki is 7.39 nM.

Question: What about the EC50 [3] of the same compound?
Answer: Its EC50 is 64.5 nM.

Question: What about the “mGlu5 Fold Shift @1 μM” value [4] of the same compound?
Answer: Its value is 2.8.

Question: Cc1cc(C(=O)N2CC/C(=C\C#Cc3cccc(CO)c3)C(C)(C)C2)c(C)o1 [Example 46, (2,5-dimethylfuran-3-yl)[(4E)-4-{3-[3-(hydroxymethyl)phenyl]prop-2-yn-1-ylidene}-3,3-dimethylpiperidin-1-yl]methanone] was tested. Which Ki [1] did it give?
Answer: Its Ki is 323 nM.

Question: And the EC50 [3]?
Answer: Its EC50 is 37.4 nM.

Question: And the “mGlu5 Fold Shift @1 μM” value [4]?
Answer: Its value is 3.79.

Question: COC(=O)N1CC/C(=C\C#Cc2nccc(C)n2)C1(C)C [Example 64, methyl (3E)-2,2-dimethyl-3-[3-(4-methylpyrimidin-2-yl)prop-2-yn-1-ylidene]pyrrolidine-1-carboxylate] was tested. Which Ki [1] did it give?
Answer: Its Ki is 82.9 nM.

Question: How did the Ki [1] turn out when CCOC(=O)N1CC/C(=C\C#Cc2cc(C#N)ccn2)C1(C)C [Example 73, ethyl (3E)-3-[3-(4-cyanopyridin-2-yl)prop-2-yn-1-ylidene]-2,2-dimethylpyrrolidine-1-carboxylate] was run?
Answer: The Ki was 29.8 nM.

Question: With CC1(C)CN(C(=O)c2cccc(Cl)c2)CC/C1=C\c1cc(-c2cccc(Cl)c2)[nH]n1 [Example 107, (3-chlorophenyl)[(4E)-4-{[5-(3-chlorophenyl)-1H-pyrazol-3-yl]methylidene}-3,3-dimethylpiperidin-1-yl]methanone] as the compound, how does the Ki [1] read?
Answer: Its Ki is 932 nM.

Question: And the EC50 [3]?
Answer: The EC50 was 121 nM.

Question: And the “mGlu5 Fold Shift @1 μM” value [4]?
Answer: Its value is 7.66.

Question: Which Ki [1] does the source give for CC1(C)CN(C(=O)c2cccc(Cl)c2)CC/C1=C\C#Cc1cccc(C#N)c1 [Example 116, 3-{(3E)-3-[1-(3-chlorobenzoyl)-3,3-dimethylpiperidin-4-ylidene]prop-1-yn-1-yl}benzonitrile] here?
Answer: The Ki was 1.6 nM.

Question: And the EC50 [3]?
Answer: Its EC50 is 52.8 nM.

Question: What about the “mGlu5 Fold Shift @1 μM” value [4] of the same compound?
Answer: Its value is 2.14.

Question: What does the source list for CC1(C)CN(C(=O)c2cccc(Cl)c2)CC/C1=C\C#Cc1cccc(CO)c1 [Example 119, (3-chlorophenyl){(4E)-4-{3-[3-(hydroxymethyl)phenyl]prop-2-yn-1-ylidene}-3,3-dimethylpiperidin-1-yl]methanone]?
Answer: Ki [1]: 8.05 nM; EC50 [3]: 49.7 nM; mGlu5 Fold Shift @1 μM [4]: 2.9

Question: With CC1(C)CN(C(=O)c2cccc(Cl)c2)CC/C1=C\C#Cc1ccc(F)cc1 [Example 120, (3-chlorophenyl){(4E)-4-[3-(4-fluorophenyl)prop-2-yn-1-ylidene]-3,3-dimethylpiperidin-1-yl}methanone] as the compound, how does the Ki [1] read?
Answer: The Ki was 4.02 nM.

Question: What about the EC50 [3] of the same compound?
Answer: The EC50 was 38.6 nM.

Question: And the “mGlu5 Fold Shift @1 μM” value [4]?
Answer: The value was 5.5.

Question: For CC1(C)CN(C(=O)c2cccc(O)c2)CC/C1=C\C#Cc1cccc(Cl)c1 [Example 126, {(4E)-4-[3-(3-chlorophenyl)prop-2-yn-1-ylidene]-3,3-dimethylpiperidin-1-yl}(3-hydroxyphenyl)methanone], which EC50 [3] is on record?
Answer: Its EC50 is 115 nM.

Question: What about the “mGlu5 Fold Shift @1 μM” value [4] of the same compound?
Answer: Its value is 3.4.

Question: Which Ki [1] does the source give for Cc1cccc(C(=O)N2CC/C(=C\C#Cc3cccc(Cl)c3)C(C)(C)C2)n1 [Example 128, {(4E)-4-[3-(3-chlorophenyl)prop-2-yn-1-ylidene]-3,3-dimethylpiperidin-1-yl}(6-methylpyridin-2-yl)methanone] here?
Answer: Its Ki is 1.82 nM.

Question: What about the EC50 [3] of the same compound?
Answer: Its EC50 is 165 nM.

Question: What about the “mGlu5 Fold Shift @1 μM” value [4] of the same compound?
Answer: Its value is 3.5.

Question: What does the source list for COc1cccc(C(=O)N2CC/C(=C\C#Cc3cccc(Cl)c3)C(C)(C)C2)c1 [Example 137, {(4E)-4-[3-(3-chlorophenyl)prop-2-yn-1-ylidene]-3,3-dimethylpiperidin-1-yl}(3-methoxyphenyl)methanone]?
Answer: EC50 [3]: 268 nM; mGlu5 Fold Shift @1 μM [4]: 2.1

Question: COc1cc(OC)nc(C(=O)N2CC/C(=C\C#Cc3cccc(Cl)c3)C(C)(C)C2)n1 [Example 166, {(4E)-4-[3-(3-chlorophenyl)prop-2-yn-1-ylidene]-3,3-dimethylpiperidin-1-yl}(4,6-dimethoxypyrimidin-2-yl)methanone] was tested. Which “mGlu5 Fold Shift @1 μM” value [4] did it give?
Answer: Its value is 1.35.

Question: For CCn1nc(C)c(C(=O)N2CC/C(=C\C#Cc3cccc(Cl)c3)C(C)(C)C2)n1 [Example 167, {(4E)-4-[3-(3-chlorophenyl)prop-2-yn-1-ylidene]-3,3-dimethylpiperidin-1-yl}(2-ethyl-5-methyl-2H-1,2,3-triazol-4-yl)methanone], which Ki [1] is on record?
Answer: Its Ki is 2.42 nM.

Question: What about the EC50 [3] of the same compound?
Answer: The EC50 was 23 nM.

Question: What about the “mGlu5 Fold Shift @1 μM” value [4] of the same compound?
Answer: Its value is 2.7.

Question: What does the source list for CC1(C)CN(C(=O)c2cccc(Cl)c2)CC/C1=C\C#Cc1cccc(O)c1 [Example 191, (3-chlorophenyl){(4E)-4-[3-(3-hydroxyphenyl)prop-2-yn-1-ylidene]-3,3-dimethylpiperidin-1-yl}methanone]?
Answer: Ki [1]: 7.35 nM; EC50 [3]: 224 nM; mGlu5 Fold Shift @1 μM [4]: 3.9

Question: How did the EC50 [3] turn out when COc1cccc(C(=O)N2CC/C(=C\C#Cc3cccc(C#N)c3)C(C)(C)C2)c1 [Example 196, 3-{(3E)-3-[1-(3-methoxybenzoyl)-3,3-dimethylpiperidin-4-ylidene]prop-1-yn-1-yl}benzonitrile] was run?
Answer: Its EC50 is 87.7 nM.

Question: And the “mGlu5 Fold Shift @1 μM” value [4]?
Answer: Its value is 2.2.

Question: With Cc1cc(C(=O)N2CC/C(=C\C#Cc3cc(F)cc(C#N)c3)C(C)(C)C2)c(C)o1 [Example 200, 3-[(3E)-3-{1-[(2,5-dimethylfuran-3-yl)carbonyl]-3,3-dimethylpiperidin-4-ylidene}prop-1-yn-1-yl]-5-fluorobenzonitrile] as the compound, how does the Ki [1] read?
Answer: Its Ki is 637 nM.

Question: And the EC50 [3]?
Answer: Its EC50 is 291 nM.

Question: What about the “mGlu5 Fold Shift @1 μM” value [4] of the same compound?
Answer: Its value is 2.3.

Question: Which results are given for O=C(c1cccc(Cl)c1)N1CC/C(=C\C#Cc2cccc(Cl)c2)C(F)(F)C1 [Example 201, (3-chlorophenyl){(4E)-4-[3-(3-chlorophenyl)prop-2-yn-1-ylidene]-3,3-difluoropiperidin-1-yl}methanone]?
Answer: Ki [1]: 1.91 nM; EC50 [3]: 88.2 nM; mGlu5 Fold Shift @1 μM [4]: 4.5
